Results from US6569847B1, “Substituted azetidin-2-ones as cysteine protease inhibitors” (NAEJA Pharmaceuticals Inc., priority 1999, dated 2003).

Legend:
Cathepsin B = Cathepsin B (Homo sapiens, UniProt P07858); assay: Assay Procedure for Cathepsin B (fluorogenic substrate N-CBZ-Phe-Arg-AMC); format: biochemical; conditions: r Cathepsin B, pH 5.1, 10 min preincubation; read-out: CatB IC50
Procedure: Assay Procedure for Cathepsin B
To 170 μl of enzyme-buffer mixture (r Cathepsin B diluted to give approx. 30 F units/min, buffer: 56 mM Na acetate, 1.124 mM EDTA, 10 mM DTT, pH 5.1), 10 μl of inhibitor (dissolved in 100% DMSO ) was added.
After 10 min of incubation at mom temperature 20 μl of 5 mM substrate (N-CBZ-Phe-Arg-AMC, dissolved in DMSO ) was added to initiate reaction. Reading is followed for 10 min at the Fluoroscan reader (excitation at 380 nm, emission at 460 nm).
(§1) A plot of percentage of inhibition vs inhibitor concentration is obtained, and the IC50 is determined using a linear regression calculation (concentration of inhibitor which will give 50% inhibition).

Cathepsin L = Cathepsin L (Homo sapiens, UniProt P07711); assay: Assay Procedure for Cathepsin L (fluorogenic substrate N-CBZ-Phe-Arg-AMC); format: biochemical; conditions: r Cathepsin L, pH 5.0, 10 min preincubation; read-out: CatL IC50
Procedure: Assay Procedure for Cathepsin L
To 170 μl of an enzyme-buffer mixture (enzyme: r Cathepsin L, diluted to give 25 F units/min, buffer: 58.8 mM Na citrate, 1.18 mM EDTA, 235 mM sodium chloride, 10 mM DTT, pH 5.0), 10 μl of an inhibitor (dissolved in 100% DMSO ) was added.
After 10 min of incubation at room temperature 20 μl of 1 mM substrate (N-CBZ-Phe-Arg-AMC) dissolved in DMSO was added to initiate the reaction. Reading was for 10 min at the Fluoroscan reader (excitation at 380 nm, emission at 460 nm).
as §1

Cathepsin K = biological target: T1, Cathepsin K (Homo sapiens, UniProt P43235); assay: Assay Procedure for Cathepsin K (fluorogenic substrate N-CBZ-Phe-Arg-AMC); format: biochemical; conditions: r Cathepsin K, pH 5.5, 10 min preincubation; read-out: CatK IC50
T1 sequence (P43235 115-329): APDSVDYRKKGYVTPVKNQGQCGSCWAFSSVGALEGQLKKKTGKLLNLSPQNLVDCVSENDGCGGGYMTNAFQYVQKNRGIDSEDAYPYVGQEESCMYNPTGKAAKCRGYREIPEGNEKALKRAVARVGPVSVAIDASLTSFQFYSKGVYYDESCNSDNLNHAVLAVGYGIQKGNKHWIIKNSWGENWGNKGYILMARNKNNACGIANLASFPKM
Procedure: Assay Procedure for Cathepsin K
To 170 μl of enzyme-buffer mixture (r Cathepsin K diluted to give approx. 30 F units/min. Buffer: 100 mM sodium acetate, 5 mM EDTA, 20 mM L-Cysteine, 0.01% Brij , pH 5.5), 10 μl of inhibitor (dissolved in 100% DMSO) was added.
After 10 min of incubation at room temperature 20 μl of 2.7 mM substrate (N-CBZ-Phe-Arg-AMC, dissolved in DMSO) was added to initiate reaction. Reading is followed for 10 min at the Fluoroscan II plate reader (excitation at 380 nm, emission at 460 nm).
as §1

Cathepsin S = Cathepsin S (Homo sapiens, UniProt P25774); assay: Assay Procedure for Cathepsin S (fluorogenic substrate CBZ-Val-Val-Arg-AMC); format: biochemical; conditions: r Cathepsin S, pH 6.5, 10 min preincubation; read-out: CatS IC50
Procedure: Assay Procedure for Cathepsin S
To 170 μl of enzyme-buffer mixture (r Cathepsin S diluted to give approx. 30 F unis/min, buffer: 100 mM sodium phosphate, 1 mM EDTA, 5 mM DTT ,0.01% Brij, pH 6.5.), 10 μl of inhibitor (dissolved in 100% DMSO) was added.
After 10 min of incubation at room temperature 20 μl of 1.2 mM substrate (CBZ-Val-Val-Arg-AMC, dissolved in DMSO) was added to initiate reaction. Reading is followed for 10 min at the Fluoroscan II plate reader (excitation at 380 nm, emission at 460 nm).
as §1

Chain of Cathepsin L (P07711 114-333, species assumed): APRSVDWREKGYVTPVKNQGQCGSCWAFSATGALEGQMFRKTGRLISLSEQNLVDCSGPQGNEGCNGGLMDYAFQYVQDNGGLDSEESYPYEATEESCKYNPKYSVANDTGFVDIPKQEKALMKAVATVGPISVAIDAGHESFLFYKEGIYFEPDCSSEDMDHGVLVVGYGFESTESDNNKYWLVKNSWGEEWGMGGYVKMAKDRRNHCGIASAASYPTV
Chain of Cathepsin S (P25774 115-331, species assumed): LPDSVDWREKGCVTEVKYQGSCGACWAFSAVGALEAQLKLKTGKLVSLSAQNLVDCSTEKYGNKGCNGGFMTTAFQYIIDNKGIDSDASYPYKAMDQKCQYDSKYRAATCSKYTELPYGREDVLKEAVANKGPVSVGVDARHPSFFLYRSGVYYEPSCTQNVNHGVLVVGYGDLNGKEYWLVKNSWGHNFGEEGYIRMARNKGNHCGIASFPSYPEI

SMILES | IC50 (Cathepsin B) [nM] | IC50 (Cathepsin L) [nM] | IC50 (Cathepsin K) [nM] | IC50 (Cathepsin S) [nM] | melting point [°C]
CC(=O)O[C@@H]1NC(=O)[C@@]1(C)NC(=O)[C@H](Cc1ccccc1)NC(=O)CCc1ccccc1 [Example 4, (3S,4S)-3-[2S-2-(3-phenylpropionyl)-amino-2-benzyl]-acetamido-3-methyl-4-acetoxy azetidine-2-one] | 10000 | 1910 | 1140 | 98 | 163 to 164
C[C@@]1(NC(=O)[C@H](CC2CCCCC2)NC(=O)CCCCCNC(=NC(=O)OCc2ccccc2)NC(=O)OCc2ccccc2)C(=O)N[C@H]1Oc1ccccc1 [Example 7, (3S,4S)-3-[2S-2-(6-N, N-dibenzyloxycarbonylguanidinohexanoyl)-amino-2-cyclohexylmethyl]-acetamido-3-methyl-4-phenoxy-azetidine-2-one] | 26200 | 32500 | 32500 | 20 | –
CC(C)(C)OC(=O)N[C@@H](Cc1cccnc1)C(=O)N[C@]1(C)C(=O)N[C@H]1Oc1ccccc1 [Example 12] | 11300 | 2270 | 7740 | 1800 | 109 to 110
CC(C)(C)OC(=O)N[C@@H](Cc1cccnc1)C(=O)N[C@]1(C)C(=O)N[C@@H]1Oc1ccccc1 [Example 14] | 360 | 450 | 1340 | 50 | –
C[C@@]1(NC(=O)[C@H](Cc2ccccc2)NC(=O)CCc2ccccc2)C(=O)N[C@H]1Oc1cccc(C(=O)OC(c2ccccc2)c2ccccc2)c1 [Example 18, (3S,4S)-3-[2S-2-(3-phenylpropionyl)-amino-2-benzyl]-acetamido-3-methyl-4-(3-diphenylmethoxycarbonyl)-phenoxy azetidine-2-one] | > 36600 | 7330 | 7300 | 690 | –
